Test results as given in patent US20230124862A1, “BISMUTH THIOL COMPOUNDS AND COMPOSITIONS AND METHODS OF TREATING MICROBIAL CO-INFECTIONS” (Microbion Corporation, priority 2020, published 2023).
Values after ≈ are worked out from the molar mass of the structure shown. Like-named read-outs stand apart in the source and are kept apart here. Marks after values point to notes of the source that are not given here.

What was measured:
Aspergillus spp. = assay: Antifungal broth microdilution (Example 13); format: cell-based, A. niger, A. terreus, A. fumigatus, A. flavus; settings: for MEC at 48 hr: complete inhibition (MIC0) not observed
[1] = tested on: Gram-negative organisms (P. aeruginosa, E. coli, A. baumannii, H. influenzae); settings: cited from earlier work
[2] = tested on: Gram-negative organisms (P. aeruginosa, E. coli, A. baumannii, H. influenzae); assay: Broth microdilution MIC with pulmonary surfactant (Survanta); format: cell-based; settings: evaluated organisms, 1-10% Survanta
[3] = tested on: MucilAir fully differentiated human airway epithelium
[4] = humans
[5] = tested on: Burkholderia cepacia complex; format: cell-based, Burkholderia spp.; settings: initial MIC testing
Pseudomonas aeruginosa = assay: Broth microdilution MIC (Example 12); format: cell-based
Enterobacteriaceae = assay: Broth microdilution MIC (Example 11); format: cell-based, E. coli, K. pneumoniae, Enterobacter cloacae
Klebsiella pneumoniae = assay: Broth microdilution MIC (Example 12); format: cell-based
P. aeruginosa = assay: Checkerboard FIC/FICI assay; format: cell-based, Pseudomonas aeruginosa; settings: during FIC testing

## CC(S)C(C)S.[Bi] (centres unmarked) [BisBDT, bismuth-2,3-butanedithiol]
Aspergillus spp.; 24 h, A. flavus ATCC 22546, complete inhibition, 24 hr, read-out: MIC0 24 hr
  MIC: 1 µg/mL
Aspergillus spp.; 24 h, A. flavus ATCC 204304, complete inhibition, 24 hr, read-out: MIC0 24 hr
  MIC: 4 µg/mL
Aspergillus spp.; 24 h, A. flavus MMX 7935, complete inhibition, 24 hr, read-out: MIC0 24 hr
  MIC: 8 µg/mL
Aspergillus spp.; 24 h, A. fumigatus ATCC 204305, complete inhibition, 24 hr, read-out: MIC0 24 hr
  MIC: 8 µg/mL
Aspergillus spp.; 24 h, A. fumigatus ATCC MYA-3626, complete inhibition, 24 hr, read-out: MIC0 24 hr
  MIC: 2 µg/mL
Aspergillus spp.; 24 h, A. fumigatus MMX 5934, complete inhibition, 24 hr, read-out: MIC0 24 hr
  MIC: 2 µg/mL
Aspergillus spp.; 24 h, A. fumigatus MMX 5939, complete inhibition, 24 hr, read-out: MIC0 24 hr
  MIC: 2 µg/mL
Aspergillus spp.; 24 h, A. terreus MMX 8229, complete inhibition, 24 hr, read-out: MIC0 24 hr
  MIC: 0.25 µg/mL
Aspergillus spp.; 48 h, A. flavus ATCC 22546, complete inhibition, 48 hr, read-out: MIC0 48 hr
  MIC: 2 µg/mL
Aspergillus spp.; 48 h, A. flavus MMX 7935, complete inhibition, 48 hr, read-out: MIC0 48 hr
  MIC: 8 µg/mL
Aspergillus spp.; 48 h, A. fumigatus ATCC MYA-3626, complete inhibition, 48 hr, read-out: MIC0 48 hr
  MIC: 4 µg/mL
Aspergillus spp.; 48 h, A. fumigatus MMX 5939, 48 hr, cell marked footnote b, read-out: MIC0 48 hr
  MIC: 4 µg/mL
Aspergillus spp.; 48 h, A. terreus MMX 8229, complete inhibition, 48 hr, read-out: MIC0 48 hr
  MIC: 1 µg/mL
Aspergillus spp.; A. flavus ATCC 204304, 48 hr
  MEC at 48 hr: 4/4^a μg/mL
Aspergillus spp.; A. flavus ATCC 204304, 48 hr, cells marked footnote c (not given; Table 109 gives the 48 hr results as MEC)
  MIC 48 hr: 4^c
Aspergillus spp.; A. fumigatus ATCC 204305, 48 hr
  MEC at 48 hr: 4 µg/mL
Aspergillus spp.; A. fumigatus ATCC MYA-3626, 24 hr
  MIC 24 hr: 2 µg/mL
Aspergillus spp.; A. fumigatus ATCC MYA-3626, 48 hr
  MIC 48 hr: 4 µg/mL
Aspergillus spp.; A. fumigatus MMX 5934, 48 hr
  MEC at 48 hr: 4 µg/mL
Aspergillus spp.; A. niger ATCC 29508, complete inhibition, […], read-out: MIC0 48 hr
  MIC: 2 µg/mL

## C1C[S][Bi]([S]CC[S][Bi]2[S]CC[S]2)[S]1 [BisEDT, Bismuth-1,2-ethanedithiol]
[1]; H. Influenzae ATCC 49247
  CLSI acceptable MIC QC range: (0.015-0.06) μg/mL
[1]; P. aeruginosa ATCC 27853
  CLSI acceptable MIC QC range: 0.5 to 4 µg/mL
[2]
  effect of Survanta addition on MIC values: largely unaffected
[3]; BisEDT in solution, all tested concentrations and time points
  Morphology after exposure: No morphology changes were observed
[3]; solid in dextran, 3.33 μg/cm^2, 24 and 48 h
  Morphology after exposure: Cells were rounded and opaque at the periphery of inserts
[3]; solid in dextran, 0.033 and 0.33 μg/cm^2
  Morphology after exposure: No morphological modifications were observed
[3]; solid, 1 μg/cm^2, 1 hour and 8 hour
  Morphology after exposure: no important morphological changes were observed
[3]; solid, 1 μg/cm^2, 24 h
  Morphology after exposure: the epithelial cells on 2 inserts out of 3 were dead
[3]; solid, 1 μg/cm^2, 48 h
  Morphology after exposure: the epithelial cells on all 3 inserts were dead
[4]; 6 hours
  well-tolerated topical concentration: up to 2500 μg/cm^2
[4]; over 21 days continuous exposure, normal and abraded skin
  tolerated topical concentration: up to 75 μg/cm^2

## C[C@@H](O)[C@H]1C(=O)N2C(C(=O)O)=C(S[C@@H]3CN[C@H](C(=O)N(C)C)C3)[C@H](C)[C@H]12 [MEM]
[5]; B. cenocepacia isolate 0548 (CIP-R)
  MIC: 4 µg/mL (≈ 10.4 µM)
[5]; B. cenocepacia isolate 0813 (CPI-I)
  MIC: 2 µg/mL (≈ 5.22 µM)
[5]; B. cenocepacia isolate 1631
  MIC: 4 µg/mL (≈ 10.4 µM)
[5]; B. cenocepacia isolate 1783
  MIC: 4 µg/mL (≈ 10.4 µM)
[5]; B. cenocepacia isolate 8555
  MIC: 4 µg/mL (≈ 10.4 µM)
[5]; B. cepacia isolate 0546
  MIC: 4 µg/mL (≈ 10.4 µM)
[5]; B. cepacia isolate 0547
  MIC: 2 µg/mL (≈ 5.22 µM)
[5]; B. cepacia isolate 1793
  MIC: 4 µg/mL (≈ 10.4 µM)
[5]; B. cepacia isolate 1794
  MIC: 4 µg/mL (≈ 10.4 µM)
[5]; B. cepacia isolate 9040
  MIC: 4 µg/mL (≈ 10.4 µM)
[5]; B. multivorans isolate 1580 (CIP-R)
  MIC: 2 µg/mL (≈ 5.22 µM)
[5]; B. multivorans isolate 1791
  MIC: 4 µg/mL (≈ 10.4 µM)
[5]; B. multivorans isolate 1795 (MEM-I, CIP-R)
  MIC: 8 µg/mL (≈ 20.9 µM)
[5]; B. multivorans isolate 5665 (CIP-I)
  MIC: 2 µg/mL (≈ 5.22 µM)
[5]; B. multivorans isolate 8952 (CIP-I)
  MIC: 2 µg/mL (≈ 5.22 µM)
Pseudomonas aeruginosa; P. aeruginosa ATCC 27853, ATCC QC organism (Table 102)
  MIC: 0.25 µg/mL (≈ 0.652 µM)
Pseudomonas aeruginosa; P. aeruginosa CDC 230, VIM/OXA
  MIC: >8 µg/mL
Pseudomonas aeruginosa; P. aeruginosa CDC 231, KPC/OXA
  MIC: >8 µg/mL
Pseudomonas aeruginosa; P. aeruginosa CDC 241, IMP/OXA
  MIC: >8 µg/mL
Pseudomonas aeruginosa; P. aeruginosa CDC 246, NDM/OXA
  MIC: >8 µg/mL
Pseudomonas aeruginosa; P. aeruginosa CDC 250, NDM/OXA
  MIC: >8 µg/mL
Pseudomonas aeruginosa; P. aeruginosa CDC 356, KPC
  MIC: >8 µg/mL
Pseudomonas aeruginosa; P. aeruginosa CDC 439, IMP
  MIC: >8 µg/mL
Pseudomonas aeruginosa; P. aeruginosa CDC 444, VIM
  MIC: >8 µg/mL
Pseudomonas aeruginosa; P. aeruginosa CDC 457, VIM
  MIC: >8 µg/mL
Pseudomonas aeruginosa; P. aeruginosa CDC 516, KPC/AmpC
  MIC: >8 µg/mL
Pseudomonas aeruginosa; P. aeruginosa CDC 518, KPC/AmpC
  MIC: >8 µg/mL
Enterobacteriaceae; E. cloacae (MMX 5981), NDM-1, LVX-R, MEM-R, CAZ-R, GEN-R
  MIC: >64 µg/mL
Enterobacteriaceae; E. coli (MMX 102), QC
  MIC: 0.03 µg/mL (≈ 0.0782 µM)
Enterobacteriaceae; E. coli (MMX 5980), NDM-1, LVX-R, MEM-R, CAZ-R, GEN-R
  MIC: 32 µg/mL (≈ 83.4 µM)
Enterobacteriaceae; E. coli (MMX 8423), ESBL, LVX-R, CAZ-R, GEN-R
  MIC: 0.03 µg/mL (≈ 0.0782 µM)
Enterobacteriaceae; E. coli (MMX 8424), ESBL, CAZ-R
  MIC: 0.03 µg/mL (≈ 0.0782 µM)
Enterobacteriaceae; E. coli (MMX 8425), ESBL, LVX-R, CAZ-R, GEN-R
  MIC: 0.015 µg/mL (≈ 0.0391 µM)
Enterobacteriaceae; K. pneumoniae (MMX 4622), KPC-2, MEM-R, CAZ-R
  MIC: >64 µg/mL
Enterobacteriaceae; K. pneumoniae (MMX 4623), KPC-2, MEM-R, CAZ-R, GEN-R
  MIC: >64 µg/mL
Enterobacteriaceae; K. pneumoniae (MMX 4653), KPC-3, LVX-R, MEM-R, CAZ-R
  MIC: >64 µg/mL
Enterobacteriaceae; K. pneumoniae (MMX 4683), KPC-2, LVX-R, MEM-R, CAZ-R
  MIC: 32 µg/mL (≈ 83.4 µM)
Enterobacteriaceae; K. pneumoniae (MMX 4684), ESBL, MEM-R
  MIC: 8 µg/mL (≈ 20.9 µM)
Enterobacteriaceae; K. pneumoniae (MMX 4685), ESBL, LVX-R, MEM-R, CAZ-R
  MIC: 4 µg/mL (≈ 10.4 µM)
Enterobacteriaceae; K. pneumoniae (MMX 4694), KPC-3, LVX-R, MEM-R, CAZ-R
  MIC: 32 µg/mL (≈ 83.4 µM)
Enterobacteriaceae; K. pneumoniae (MMX 5979), NDM-1, LVX-R, MEM-R, CAZ-R, GEN-R
  MIC: >64 µg/mL
Klebsiella pneumoniae; K. pneumoniae ATCC BAA-1705, ATCC QC organism (Table 102)
  MIC: 8 µg/mL (≈ 20.9 µM)
Klebsiella pneumoniae; K. pneumoniae ATCC BAA-1705, ESBL/KPC
  MIC: 8 µg/mL (≈ 20.9 µM)
Klebsiella pneumoniae; K. pneumoniae CDC 112, KPC
  MIC: >8 µg/mL
Klebsiella pneumoniae; K. pneumoniae CDC 113, ESBL/KPC
  MIC: >8 µg/mL
Klebsiella pneumoniae; K. pneumoniae CDC 115, ESBL/KPC
  MIC: >8 µg/mL
Klebsiella pneumoniae; K. pneumoniae CDC 120, ESBL/KPC
  MIC: >8 µg/mL
Klebsiella pneumoniae; K. pneumoniae CDC 126, ESBL/KPC
  MIC: 4 µg/mL (≈ 10.4 µM)
Klebsiella pneumoniae; K. pneumoniae CDC 129, ESBL/KPC
  MIC: 8 µg/mL (≈ 20.9 µM)
Klebsiella pneumoniae; K. pneumoniae CDC 135, ESBL/VIM
  MIC: 1 µg/mL (≈ 2.61 µM)
Klebsiella pneumoniae; K. pneumoniae CDC 138, ESBL/NDM
  MIC: >8 µg/mL
Klebsiella pneumoniae; K. pneumoniae CDC 158, ESBL/NDM/OXA
  MIC: >8 µg/mL
Klebsiella pneumoniae; K. pneumoniae MMX 9029, ESBL
  MIC: 0.015 µg/mL (≈ 0.0391 µM)
P. aeruginosa; isolate 103 (ATCC 25922), each agent tested alone for QC, one replicate
  MIC: 1 µg/mL
P. aeruginosa; isolate 6322
  MIC: 16 µg/mL
P. aeruginosa; isolate 6977
  MIC: 8 µg/mL
P. aeruginosa; isolate 7745
  MIC: 16 µg/mL
P. aeruginosa; isolate 8798
  MIC: 32 µg/mL
